In data set [1] the target is dopamine D3 receptor (Homo sapiens, UniProt P35462). The data set is described as follows: affinity for dopamine D3 receptors. Format: binding.
Data set [2] has as its target dopamine D2 receptor (Homo sapiens, UniProt P14416). The experiment in a line: affinity for dopamine D2 receptors. The data set is classed as binding.
For data set [3], the target named is T1, serotonin 5-HT2C receptor (Homo sapiens, UniProt P28335).
T1 sequence (P28335 33-458): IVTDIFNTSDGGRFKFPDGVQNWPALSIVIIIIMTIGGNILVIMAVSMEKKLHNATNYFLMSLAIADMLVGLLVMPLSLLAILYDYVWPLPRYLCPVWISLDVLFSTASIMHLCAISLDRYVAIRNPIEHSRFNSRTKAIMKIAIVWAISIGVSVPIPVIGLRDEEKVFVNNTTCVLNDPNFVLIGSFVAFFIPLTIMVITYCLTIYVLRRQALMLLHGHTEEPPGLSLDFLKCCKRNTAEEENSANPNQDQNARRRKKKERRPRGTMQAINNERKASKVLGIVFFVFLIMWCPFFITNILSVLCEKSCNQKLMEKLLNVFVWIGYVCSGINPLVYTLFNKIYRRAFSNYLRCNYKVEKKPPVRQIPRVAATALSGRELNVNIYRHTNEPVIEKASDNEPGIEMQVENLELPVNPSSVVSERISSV
The experiment in a line: antagonist affinity for serotonin 5-HT2C receptor. The data set is classed as binding.

Data set [4] concerns the target serotonin 5-HT6 receptor (Homo sapiens, UniProt P50406). The experiment in a line: antagonist affinity for serotonin 5-HT6 receptor. Format: binding.
A short description of data set [5]: solid-state stability with respect to hygroscopicity / humidity. Format: physicochemical.

Chain of dopamine D3 receptor (P35462 whole entry, species assumed): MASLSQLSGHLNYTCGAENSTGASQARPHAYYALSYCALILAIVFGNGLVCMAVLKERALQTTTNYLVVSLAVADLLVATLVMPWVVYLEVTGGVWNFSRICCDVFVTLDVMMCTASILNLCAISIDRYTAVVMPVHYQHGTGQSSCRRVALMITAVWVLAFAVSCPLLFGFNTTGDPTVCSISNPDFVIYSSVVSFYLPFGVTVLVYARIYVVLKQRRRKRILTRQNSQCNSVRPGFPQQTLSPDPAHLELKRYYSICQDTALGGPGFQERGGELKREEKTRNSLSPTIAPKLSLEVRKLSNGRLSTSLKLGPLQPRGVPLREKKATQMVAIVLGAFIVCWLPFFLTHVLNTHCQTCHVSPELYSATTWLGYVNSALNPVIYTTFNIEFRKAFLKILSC
Chain of serotonin 5-HT6 receptor (P50406 whole entry): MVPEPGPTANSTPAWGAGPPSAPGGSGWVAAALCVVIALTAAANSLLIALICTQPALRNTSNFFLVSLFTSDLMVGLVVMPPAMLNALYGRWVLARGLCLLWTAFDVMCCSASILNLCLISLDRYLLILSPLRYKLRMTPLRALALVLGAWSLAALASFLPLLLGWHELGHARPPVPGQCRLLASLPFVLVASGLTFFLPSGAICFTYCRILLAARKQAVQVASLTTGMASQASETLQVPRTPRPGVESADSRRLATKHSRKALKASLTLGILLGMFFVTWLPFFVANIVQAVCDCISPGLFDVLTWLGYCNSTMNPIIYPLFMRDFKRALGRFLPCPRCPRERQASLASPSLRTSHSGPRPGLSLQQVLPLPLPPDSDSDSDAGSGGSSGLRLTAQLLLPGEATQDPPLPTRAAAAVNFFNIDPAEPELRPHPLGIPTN
Chain of dopamine D2 receptor (P14416 whole entry): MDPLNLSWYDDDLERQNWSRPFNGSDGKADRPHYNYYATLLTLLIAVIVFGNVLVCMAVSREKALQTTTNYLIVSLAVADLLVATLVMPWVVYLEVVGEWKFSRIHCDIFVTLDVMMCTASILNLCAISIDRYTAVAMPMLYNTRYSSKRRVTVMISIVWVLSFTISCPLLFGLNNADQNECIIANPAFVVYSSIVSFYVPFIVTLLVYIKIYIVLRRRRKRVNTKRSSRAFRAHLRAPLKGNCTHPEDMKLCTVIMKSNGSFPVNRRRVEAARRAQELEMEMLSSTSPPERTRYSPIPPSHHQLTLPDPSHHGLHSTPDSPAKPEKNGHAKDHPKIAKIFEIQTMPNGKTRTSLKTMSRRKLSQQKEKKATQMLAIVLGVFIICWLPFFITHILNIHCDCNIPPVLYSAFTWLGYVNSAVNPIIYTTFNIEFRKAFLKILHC

For `COc1cc2c(cc1S(=O)(=O)c1ccc(OCc3ccc(Cl)cc3)cc1)CCN(C)CC2.O=C(O)/C=C\C(=O)O` [Form 2 salt, 7-[4-(4-Chlorobenzyloxy)benzenesulfonyl]-8-methoxy-3-methyl-2,3,4,5-tetrahydro-1H-3-benzazepinium maleate], the “affinity for dopamine D3 receptor” value in data set [1] is reported as “exhibit affinity”. The “affinity for dopamine D3 relative to D2 receptors” value in data set [1] (D3 versus D2) was “greater affinity for dopamine D3 than for D2 receptors”. The “affinity for dopamine D2 receptor” value in data set [2] is given as “exhibit affinity”. Moreover, in data set [3], the “antagonist affinity for serotonin 5-HT2C receptor” value was “antagonist affinity”. For the same compound, the “antagonist affinity for serotonin 5-HT6 receptor” value in data set [4] was “antagonist affinity”.
Regarding `COc1cc2c(cc1S(=O)(=O)c1ccc(OCc3ccc(Cl)cc3)cc1)CCN(C)CC2.O=C(O)/C=C\C(=O)O` [Form 2 maleate anhydrate, 7-[4-(4-Chlorobenzyloxy)benzenesulfonyl]-8-methoxy-3-methyl-2,3,4,5-tetrahydro-1H-3-benzazepinium Maleate], the “stability with respect to hygroscopicity and loss of water” value in data set [5] was “particular stability”. Besides, in data set [5] (very high humidity), the “changes when exposed to very high humidity” value is recorded as “reversible changes”.

The values are drawn from patent US20090163475A1, “CRYSTALLINE FORM OF BENZAZEPINIUM MALEATE DERIVATIVE” (priority 2005, published 2009).
